For one assay, the system named is 4T1 breast cancer cells. The experiment in a line: Cancer cell viability under chemotherapeutic drugs in blank cryogels or HICs. The format is cell-based. The following applies: for IC50: Mus musculus. As for the experimental part: IC50 was calculated using a linear regression in the linear part of each curve (Y=mX+n with Y=50 and X=IC50). Data are representative of n=6 samples per set of conditions.
(§1) Data are representative of n=6 samples per set of conditions.
(§2) The capacity of HICs to prevent cancer cell death when exposed to chemotherapeutic drugs was analyzed. 4T1 breast cancer cells or B16-F10 melanoma cells were cultured in normoxia within blank cryogels or HICs and treated with several concentrations of doxorubicin or cisplatin (0.1-100 μM) for 24 h, 48 h, or 72 h. Both 4T1 (FIGS. 24 and 25) and B16-F10 (FIGS. 26 and 27) cells within blank cryogels were sensitive to doxorubicin treatment. […] HICs induced up to 100-fold increase in cancer cell resistance to cisplatin after 72 h compared to blank cryogels.

The next assay relates to B16-F10 melanoma cells. The assay is described as above. In kind it is cell-based. The following applies: for IC50: Mus musculus. As for the experimental part: as §1, §2
Setting [1] is: after 72 h, stated for 4T1 and B16-F10 together.

Structures are written as SMILES.

The IC50 is the concentration at which inhibition is half-maximal. Read a low IC50 as inhibition by little substance.

Regarding `N.N.[Cl][Pt][Cl]` [cisplatin], the “increase in cancer cell resistance in HICs compared to blank cryogels” value with 4T1 breast cancer cells (setting [1]) and in the assay with B16-F10 melanoma cells (setting [1]) was “up to 100 fold” in each case.
`COc1cccc2c1C(=O)c1c(O)c3c(c(O)c1C2=O)C[C@@](O)(C(=O)CO)C[C@@H]3O[C@H]1C[C@H](N)[C@H](O)[C@H](C)O1` [doxorubicin]: the IC50 in the assay on 4T1 breast cancer cells (4T1, 24 h, 4T1 cells in HICs, 24 h) was determined as 56.8 µM; in the assay on 4T1 breast cancer cells (4T1, 24 h, 4T1 cells within blank cryogels, 24 h) it was 1.08 µM; in the assay with 4T1 breast cancer cells (4T1, 48 h, 4T1 cells in HICs, 48 h) it was 50.7 µM; in the assay on 4T1 breast cancer cells (4T1, 48 h, 4T1 cells within blank cryogels, 48 h), 0.55 µM; with 4T1 breast cancer cells (4T1, 72 h, 4T1 cells in HICs, 72 h) it was 47.2 µM; in the assay with 4T1 breast cancer cells (4T1, 72 h, 4T1 cells within blank cryogels, 72 h), 0.33 µM. Besides, the IC50 was 55.7 µM in the assay on B16-F10 melanoma cells (B16-F10, 24 h, B16-F10 cells in HICs, 24 h); 0.91 µM in the assay on B16-F10 melanoma cells (B16-F10, 24 h, B16-F10 cells within blank cryogels, 24 h); 46.2 µM in the assay with B16-F10 melanoma cells (B16-F10, 48 h, B16-F10 cells in HICs, 48 h); 0.37 µM with B16-F10 melanoma cells (B16-F10, 48 h, B16-F10 cells within blank cryogels, 48 h); 47.2 µM in the assay with B16-F10 melanoma cells (B16-F10, 72 h, B16-F10 cells in HICs, 72 h); 0.38 µM in the assay with B16-F10 melanoma cells (B16-F10, 72 h, B16-F10 cells within blank cryogels, 72 h).
